Assay results as given in patent US20230184743A1, “SCREENING METHODS TO IDENTIFY SMALL MOLECULE COMPOUNDS THAT PROMOTE OR INHIBIT THE GROWTH OF CIRCULATING TUMOR CELLS, AND USES THEREOF” (University of Southern California, priority 2020, published 2023).
Entries after “also recorded” stand apart in the source; their conditions may differ.

Columns and labels:
[1] = system: single CTCs from 4 patient-derived CTC lines (BRx07, BRx42, BRx50, and BRx68); assay: Validation of candidate compounds: single CTC proliferation over 24 days (AUC); assay type: cell-based, human
Method: Cell culture. CTC lines were previously derived from metastatic breast cancer patients. CTC lines were cultured in ultra-low attachment plates with RPMI 1640 medium, supplemented with EGF (20 ng/mL), bFGF (20 ng/mL), 1×B27 and 1× antibiotic/antimycotic, in 4% 02 and 5% CO2. Single CTCs were cultured in GravityTRAP™ ULA 96 well Plates (PerkinElmer). Wells on the edges of the plates were not used to avoid influence from evaporation. Media with fresh compounds were exchanged every 3 days by inserting pipet tips onto the platform of the wells to prevent accidentally aspirating suspended CTCs at the bottom. CTC numbers were counted manually under an inverted microscope every 6 days.
FACS sorting. Cells were pelleted and resuspended into single cell suspension in 1% BSA in PBS buffer with 7-AAD. Live single CTCs were sorted directly into 96-well GravityTRAP™ ULA Plates using a MoFlo cell sorter (Beckman Coulter). An inverted microscope was used to manually confirm that there was 1 CTC per well, 1 hour after sorting.
Compounds screening. Compounds were from the StemSelect library obtained from the Choi Family Therapeutic Screening Facility at the Eli and Edythe Broad CIRM Center for Regenerative Medicine and Stem Cell Research at USC. Each compound was given a code to ensure unbiased assessment and blinded to the investigators. Compound information is listed in Appendix, at Table 1 of US Provisional Application No. U.S. 62/990,445, incorporated herein by reference). In the first-round screening, compounds were used with […] concentration. Stocks of compounds (10 mM concentration in DMSO) were stored in aliquots at −80° C. All compounds were thawed and refrozen for a maximum of 2 times. In the second-round validation, fresh compounds were dissolved in DMSO (Millipore sigma), and aliquots were stored at −20° C. and used only once without refreezing. Only wells started from single cells on day 0 after sorting were used in the screening experiment. Data collection was done in batches.
Statistical analysis. […] AUC was calculated for each well in each batch, by plotting days in the x-axis and the corresponding number of cells in the y-axis, then drawing a line to connect the number of cells from the starting count day to the next count day until the end day, and finally calculating the area under this line as the sum of areas of trapezoids. […] Statistical tests were performed using R. For absolute number of cells quantification, total number of cells at end of experiment in each well in each batch was compared between treated cells and untreated control and significance was analyzed with Student t test. For other experiments, data were analyzed with Student t test, and represent the means±SEM of at least triplicate samples or averages ±SD of independent analyses, as indicated. […]

[2] = system: CTC lines (BRx42, BRx50 and BRx68) spiked into healthy donors' blood; assay: Spike-in experiment: growth of CTCs isolated from spiked healthy donors' blood; assay type: cell-based, human; settings: RosetteSep isolated, cultured 20 days
Method: Spike-in experiment. Healthy volunteers' blood samples were collected. GFP-positive CTC lines (50 cells/mL) were spiked into the blood samples from healthy volunteers, and RosetteSep™ CTC Enrichment Cocktail Containing […] was used to enrich CTCs from spiked-in samples. Isolated CTCs were cultured in GravityTRAP™ ULA Plate 96 wells. Each patient CTC cell line was processed by 2 different researchers.
Validation on spiked-in CTCs. To mimic the CTC isolation procedure, spiked-in experiments were performed with 3 CTC lines (BRx42, BRx50 and BRx68) into healthy donors' blood. The RosettSep CTC isolation method was used to isolate the spiked CTCs, and separated isolated CTCs equally into wells with control media or with NAC or NAC plus P1C2. […] This confirmed the effects of these compounds on expanding CTCs that have been processed through an isolation procedure. NAC single cell clones form tumors with similar kinetics as controls. It was noticed that the most critical phase is the initial expansion from single CTCs. […] Therefore, treatment of these compounds was stopped at 24 days, and then prolonged the culture to generate several single cell clones. To evaluate the tumorigenicity of the single cell clones, GFP-Luciferase tagged BRx68 single clones generated with NAC treatment or control clones were injected into the mammary fat pats of female NSG mice.

[3] = system: GFP-Luciferase tagged BRx68 single clones; assay: Xenograft assay of single cell clones generated with or without NAC; assay type: in vivo; settings: clones generated with 300 μM NAC for 24 days vs control clones; mammary fat pad of female NSG mice
Method: Single CTC clones. NAC clones were generated by treating single CTCs with 300 μM NAC media for 24 days before switching to regular CTC media. Control single clone lines were established in the same batch using regular CTC media.
Xenograft assay and Hematoxyline & Eosin staining. Six-week old female NSG mice (Jackson Laboratory) were anesthetized with isoflurane and 20,000 GFP/luc-positive single clone cells in 100 μL of 1:1 PBS and Corning® Matrigel® Matrix (phenol-red free) were injected into the fourth mammary fat pad. To evaluate the growth of primary tumors, mice were intraperitoneally injected with 150 μL of d-Luciferin substrate at 30 mg/mL (Sid Labs), and imaged within 15 minutes. Signals from luciferase-tagged cells were monitored at day 0 after injection and weekly by in vivo imaging using IVIS Lumina II (Perkin Elmer) for 5 weeks. Mice were sacrificed after 8 weeks, and their organs were dissected and imaged. Primary tumors and organs were collected and fixed with 10% formalin overnight and sectioned for 5 μm thickness. H&E staining was performed using Varistain Gemini ES Automated Slide Stainer in USC's Histology Laboratory (HIST). Images were taken with a 20× objective in Keyence (BZ-II Analyser, Keyence).
Validation on spiked-in CTCs. To mimic the CTC isolation procedure, spiked-in experiments were performed with 3 CTC lines (BRx42, BRx50 and BRx68) into healthy donors' blood. […]

For `CC(=O)N[C@@H](CS)C(=O)O` [NAC, N-acetyl-L-cysteine], the “additional growth advantages from treatment once a single cell colony reaches a critical size” value ([1]; after initial expansion from single CTCs) was “does not seem to confer additional growth advantages”, the “single CTC expansion compared to controls” value ([1]; all 4 CTC lines, NAC 300 μM, P1C2 1 μM or 0.5 μM, 24 days) was “promote growth of single CTCs; also recorded: statistically significant improvement” and the “growth of isolated CTCs compared to the control condition” value [2] was “promote growth of small numbers of CTCs; also recorded: significantly increased”. For the same molecule, the “tumorigenicity of single cell clones (tumor growth kinetics and histology)” value [3] was “dose not change the tumorigenicity; also recorded: did not significantly affect”.
